Source: patent US11155517B2, “4-substituted phenylamine derivatives and their use to protect crops by fighting undesired phytopathogenic micoorganisms” (PI INDUSTRIES LTD., priority 2016, dated 2021)

What was measured:
Format in all cases: cell-based
Pyricularia oryzae = assay: microbe, parasite or virus in culture; conditions: 168 h, read-out: % control compared to the untreated check (radial growth)
Rhizoctonia solani = Rhizoctonia solani (rice sheath blight/potato black scurf) in vitro test, radial growth on Potato Dextrose Agar; conditions: 168 h, 300 ppm, seven days, 25° C., read-out: % control compared to the untreated check (radial growth)
Botrytis cinerea = Botrytis cinerea (gray mold) in vitro test, radial growth on Potato Dextrose Agar; conditions: 168 h, 300 ppm, seven days, 22° C., read-out: % (control) compared to the untreated check (radial growth)
Alternaria solani = Alternaria solani (early blight of tomato/potato) in vitro test, radial growth on Potato Dextrose Agar; conditions: 168 h, 300 ppm, seven days, 25° C., read-out: % control compared to the untreated check (radial growth)
Colletotrichum capsici = Colletotrichum capsici (anthracnose) in vitro test, radial growth on Potato Dextrose Agar; conditions: Colletotrichum truncatum, 168 h; 300 ppm; seven days, 25° C.; read-out: % control compared to the untreated check (radial growth)
Septoria lycopersici = Septoria lycopersici (leaf spot of tomato) in vitro test, radial growth on Potato Dextrose Agar; conditions: 168 h, seven days, 25° C., read-out: % control compared to the untreated check (radial growth)
Fusarium culmorum = Fusarium culmorum (foot rot of cereals) in vitro test, radial growth on Potato Dextrose Agar; conditions: Fusarium culmorum, 168 h, read-out: % control compared to the untreated check (radial growth)

## CCN(C)C=Nc1cc(C)c(Cc2ccc(F)cc2C)cc1Cl [Compound 167, N′-(2-chloro-4-(4-fluoro-2-methylbenzyl)-5-methylphenyl)-N-ethyl-N-methylformimidamide]
Pyricularia oryzae
  inhibition of growth at 300 ppm: > 75%
Rhizoctonia solani
  inhibition of growth at 300 ppm: > 80%
Botrytis cinerea
  inhibition of growth at 300 ppm: > 80%
Alternaria solani
  inhibition of growth at 300 ppm: > 75%
Colletotrichum capsici
  inhibition of growth at 300 ppm: > 80%
Septoria lycopersici
  inhibition of growth at 300 ppm: > 70%
Fusarium culmorum
  inhibition of growth at 300 ppm: 75%

## CCN(C)C=Nc1cc(C)c(Cc2cc(F)cc(OC)c2)cc1Cl [Compound 169, N′-(2-chloro-4-(3-fluoro-5-methoxybenzyl)-5-methylphenyl)-N-ethyl-N-methylformimidamide]
Pyricularia oryzae
  inhibition of growth at 300 ppm: > 75%
Rhizoctonia solani
  inhibition of growth at 300 ppm: > 80%
Botrytis cinerea
  inhibition of growth at 300 ppm: > 80%
Alternaria solani
  inhibition of growth at 300 ppm: > 75%
Colletotrichum capsici
  inhibition of growth at 300 ppm: > 80%
Septoria lycopersici
  inhibition of growth at 300 ppm: > 70%
Fusarium culmorum
  inhibition of growth at 300 ppm: 75%

## CCN(C)C=Nc1cc(F)c(Cc2cccc(C)c2)cc1C [Compound 171, N-ethyl-N′-(5-fluoro-2-methyl-4-(3-methylbenzyl)phenyl)-N-methylformimidamide]
Pyricularia oryzae
  inhibition of growth at 300 ppm: > 75%
Rhizoctonia solani
  inhibition of growth at 300 ppm: > 80%
Botrytis cinerea
  inhibition of growth at 300 ppm: > 80%
Alternaria solani
  inhibition of growth at 300 ppm: > 75%
Colletotrichum capsici
  inhibition of growth at 300 ppm: > 80%
Septoria lycopersici
  inhibition of growth at 300 ppm: > 70%
Fusarium culmorum
  inhibition of growth at 300 ppm: 75%

## CCN(C)C=Nc1cc(F)c(Cc2cccc(Cl)c2)cc1C [Compound 173, N′-(4-(3-chlorobenzyl)-5-fluoro-2-methylphenyl)-N-ethyl-N-methylformimidamide]
Pyricularia oryzae
  inhibition of growth at 300 ppm: > 75%
Rhizoctonia solani
  inhibition of growth at 300 ppm: > 80%
Botrytis cinerea
  inhibition of growth at 300 ppm: > 80%
Alternaria solani
  inhibition of growth at 300 ppm: > 75%
Colletotrichum capsici
  inhibition of growth at 300 ppm: > 80%
Septoria lycopersici
  inhibition of growth at 300 ppm: > 70%
Fusarium culmorum
  inhibition of growth at 300 ppm: 75%

## CCN(C)C=Nc1cc(F)c(Cc2ccccc2F)cc1C [Compound 185, N-ethyl-N′-(5-fluoro-4-(2-fluorobenzyl)-2-methylphenyl)-N-methylformimidamide]
Pyricularia oryzae
  inhibition of growth at 300 ppm: > 75%
Rhizoctonia solani
  inhibition of growth at 300 ppm: > 80%
Botrytis cinerea
  inhibition of growth at 300 ppm: > 80%
Alternaria solani
  inhibition of growth at 300 ppm: > 75%
Colletotrichum capsici
  inhibition of growth at 300 ppm: > 80%
Septoria lycopersici
  inhibition of growth at 300 ppm: > 70%
Fusarium culmorum
  inhibition of growth at 300 ppm: 75%

## CCN(C)C=Nc1cc(F)c(Cc2ccccc2C)cc1C [Compound 186, N-ethyl-N′-(5-fluoro-2-methyl-4-(2-methylbenzyl)phenyl)-N-methylformimidamide]
Pyricularia oryzae
  inhibition of growth at 300 ppm: > 75%
Rhizoctonia solani
  inhibition of growth at 300 ppm: > 80%
Botrytis cinerea
  inhibition of growth at 300 ppm: > 80%
Alternaria solani
  inhibition of growth at 300 ppm: > 75%
Colletotrichum capsici
  inhibition of growth at 300 ppm: > 80%
Septoria lycopersici
  inhibition of growth at 300 ppm: > 70%
Fusarium culmorum
  inhibition of growth at 300 ppm: 75%

## CCN(C)C=Nc1cc(F)c(Cc2cccc(C(F)(F)F)c2)cc1C [Compound 196, N-ethyl-N′-(5-fluoro-2-methyl-4-(3-(trifluoromethyl)benzyl)phenyl)-N-methylformimidamide]
Pyricularia oryzae
  inhibition of growth at 300 ppm: > 75%
Rhizoctonia solani
  inhibition of growth at 300 ppm: > 80%
Botrytis cinerea
  inhibition of growth at 300 ppm: > 80%
Alternaria solani
  inhibition of growth at 300 ppm: > 75%
Colletotrichum capsici
  inhibition of growth at 300 ppm: > 80%
Septoria lycopersici
  inhibition of growth at 300 ppm: > 70%
Fusarium culmorum
  inhibition of growth at 300 ppm: 75%

## CCN(C)C=Nc1cc(C)c(Cc2cccc(F)c2)cc1C1CC1 [Compound 197, N′-(2-cyclopropyl-4-(3-fluorobenzyl)-5-methylphenyl)-N-ethyl-N-methylformimidamide]
Pyricularia oryzae
  inhibition of growth at 300 ppm: > 75%
Rhizoctonia solani
  inhibition of growth at 300 ppm: > 80%
Botrytis cinerea
  inhibition of growth at 300 ppm: > 80%
Alternaria solani
  inhibition of growth at 300 ppm: > 75%
Colletotrichum capsici
  inhibition of growth at 300 ppm: > 80%
Septoria lycopersici
  inhibition of growth at 300 ppm: > 70%
Fusarium culmorum
  inhibition of growth at 300 ppm: 75%

## CCN(C)C=Nc1cc(C)c(Cc2cccc(C)c2)cc1C1CC1 [Compound 198, N′-(2-cyclopropyl-5-methyl-4-(3-methylbenzyl)phenyl)-N-ethyl-N-methylformimidamide]
Pyricularia oryzae
  inhibition of growth at 300 ppm: > 75%
Rhizoctonia solani
  inhibition of growth at 300 ppm: > 80%
Botrytis cinerea
  inhibition of growth at 300 ppm: > 80%
Alternaria solani
  inhibition of growth at 300 ppm: > 75%
Colletotrichum capsici
  inhibition of growth at 300 ppm: > 80%
Septoria lycopersici
  inhibition of growth at 300 ppm: > 70%
Fusarium culmorum
  inhibition of growth at 300 ppm: 75%

## CCN(C)C=Nc1cc(C)c(Cc2cccc(Cl)c2)cc1C1CC1 [Compound 199, N′-(4-(3-chlorobenzyl)-2-cyclopropyl-5-methylphenyl)-N-ethyl-N-methylformimidamide]
Pyricularia oryzae
  inhibition of growth at 300 ppm: > 75%
Rhizoctonia solani
  inhibition of growth at 300 ppm: > 80%
Botrytis cinerea
  inhibition of growth at 300 ppm: > 80%
Alternaria solani
  inhibition of growth at 300 ppm: > 75%
Colletotrichum capsici
  inhibition of growth at 300 ppm: > 80%
Septoria lycopersici
  inhibition of growth at 300 ppm: > 70%
Fusarium culmorum
  inhibition of growth at 300 ppm: 75%

## CCN(C)C=Nc1cc(C)c(Cc2cc(C)cc(F)c2)cc1C [Compound 200, N-ethyl-N′-(4-(3-fluoro-5-methylbenzyl)-2,5-dimethylphenyl)-N-methylformimidamide]
Pyricularia oryzae
  inhibition of growth at 300 ppm: > 75%
Rhizoctonia solani
  inhibition of growth at 300 ppm: > 80%
Botrytis cinerea
  inhibition of growth at 300 ppm: > 80%
Alternaria solani
  inhibition of growth at 300 ppm: > 75%
Colletotrichum capsici
  inhibition of growth at 300 ppm: > 80%
Septoria lycopersici
  inhibition of growth at 300 ppm: > 70%
Fusarium culmorum
  inhibition of growth at 300 ppm: 75%

## CCN(C)C=Nc1cc(C)c(Cc2ccc(C(F)(F)F)cc2F)cc1C [Compound 201, N-ethyl-N′-(4-(2-fluoro-4-(trifluoromethyl)benzyl)-2,5-dimethylphenyl)-N-methylformimidamide]
Pyricularia oryzae
  inhibition of growth at 300 ppm: > 75%
Rhizoctonia solani
  inhibition of growth at 300 ppm: > 80%
Botrytis cinerea
  inhibition of growth at 300 ppm: > 80%
Alternaria solani
  inhibition of growth at 300 ppm: > 75%
Colletotrichum capsici
  inhibition of growth at 300 ppm: > 80%
Septoria lycopersici
  inhibition of growth at 300 ppm: > 70%
Fusarium culmorum
  inhibition of growth at 300 ppm: 75%

## CCN(C)C=Nc1cc(C)c(Cc2cccc(OC(F)(F)F)c2)cc1F [Compound 206, N-ethyl-N′-(2-fluoro-5-methyl-4-(3-(trifluoromethoxy)benzyl)phenyl)-N-methylformimidamide]
Pyricularia oryzae
  inhibition of growth at 300 ppm: > 75%
Rhizoctonia solani
  inhibition of growth at 300 ppm: > 80%
Botrytis cinerea
  inhibition of growth at 300 ppm: > 80%
Alternaria solani
  inhibition of growth at 300 ppm: > 75%
Colletotrichum capsici
  inhibition of growth at 300 ppm: > 80%
Septoria lycopersici
  inhibition of growth at 300 ppm: > 70%
Fusarium culmorum
  inhibition of growth at 300 ppm: 75%

## CCN(C)C=Nc1cc(C)c(Cc2ccccc2OC(F)(F)F)cc1F [Compound 207, N-ethyl-N′-(2-fluoro-5-methyl-4-(2-(trifluoromethoxy)benzyl)phenyl)-N-methylformimidamide]
Pyricularia oryzae
  inhibition of growth at 300 ppm: > 75%
Rhizoctonia solani
  inhibition of growth at 300 ppm: > 80%
Botrytis cinerea
  inhibition of growth at 300 ppm: > 80%
Alternaria solani
  inhibition of growth at 300 ppm: > 75%
Colletotrichum capsici
  inhibition of growth at 300 ppm: > 80%
Septoria lycopersici
  inhibition of growth at 300 ppm: > 70%
Fusarium culmorum
  inhibition of growth at 300 ppm: 75%

## CCN(C)C=Nc1cc(C)c(Cc2cccc(Cl)c2)cc1F [Compound 208, N′-(4-(3-chlorobenzyl)-2-fluoro-5-methylphenyl)-N-ethyl-N-methylformimidamide]
Pyricularia oryzae
  inhibition of growth at 300 ppm: > 75%
Rhizoctonia solani
  inhibition of growth at 300 ppm: > 80%
Botrytis cinerea
  inhibition of growth at 300 ppm: > 80%
Alternaria solani
  inhibition of growth at 300 ppm: > 75%
Colletotrichum capsici
  inhibition of growth at 300 ppm: > 80%
Septoria lycopersici
  inhibition of growth at 300 ppm: > 70%
Fusarium culmorum
  inhibition of growth at 300 ppm: 75%

## CCN(C)C=Nc1cc(C)c(Cc2cccc(F)c2)cc1F [Compound 209, N-ethyl-N′-(2-fluoro-4-(3-fluorobenzyl)-5-methylphenyl)-N-methylformimidamide]
Pyricularia oryzae
  inhibition of growth at 300 ppm: > 75%
Rhizoctonia solani
  inhibition of growth at 300 ppm: > 80%
Botrytis cinerea
  inhibition of growth at 300 ppm: > 80%
Alternaria solani
  inhibition of growth at 300 ppm: > 75%
Colletotrichum capsici
  inhibition of growth at 300 ppm: > 80%
Septoria lycopersici
  inhibition of growth at 300 ppm: > 70%
Fusarium culmorum
  inhibition of growth at 300 ppm: 75%

## CCN(C)C=Nc1cc(C)c(Cc2cccc(C)c2)cc1F [Compound 210, N-ethyl-N′-(2-fluoro-5-methyl-4-(3-methylbenzyl)phenyl)-N-methylformimidamide]
Pyricularia oryzae
  inhibition of growth at 300 ppm: > 75%
Rhizoctonia solani
  inhibition of growth at 300 ppm: > 80%
Botrytis cinerea
  inhibition of growth at 300 ppm: > 80%
Alternaria solani
  inhibition of growth at 300 ppm: > 75%
Colletotrichum capsici
  inhibition of growth at 300 ppm: > 80%
Septoria lycopersici
  inhibition of growth at 300 ppm: > 70%
Fusarium culmorum
  inhibition of growth at 300 ppm: 75%

## CCN(C)C=Nc1cc(C)c(Cc2ccccc2C)cc1F [Compound 212, N-ethyl-N′-(2-fluoro-5-methyl-4-(2-methylbenzyl)phenyl)-N-methylformimidamide]
Pyricularia oryzae
  inhibition of growth at 300 ppm: > 75%
Rhizoctonia solani
  inhibition of growth at 300 ppm: > 80%
Botrytis cinerea
  inhibition of growth at 300 ppm: > 80%
Alternaria solani
  inhibition of growth at 300 ppm: > 75%
Colletotrichum capsici
  inhibition of growth at 300 ppm: > 80%
Septoria lycopersici
  inhibition of growth at 300 ppm: > 70%
Fusarium culmorum
  inhibition of growth at 300 ppm: 75%

## CCN(C)C=Nc1cc(C)c(Cc2ccccc2Cl)cc1F [Compound 213, N′-(4-(2-chlorobenzyl)-2-fluoro-5-methylphenyl)-N-ethyl-N-methylformimidamide]
Pyricularia oryzae
  inhibition of growth at 300 ppm: > 75%
Rhizoctonia solani
  inhibition of growth at 300 ppm: > 80%
Botrytis cinerea
  inhibition of growth at 300 ppm: > 80%
Alternaria solani
  inhibition of growth at 300 ppm: > 75%
Colletotrichum capsici
  inhibition of growth at 300 ppm: > 80%
Septoria lycopersici
  inhibition of growth at 300 ppm: > 70%
Fusarium culmorum
  inhibition of growth at 300 ppm: 75%

## CCN(C)C=Nc1cc(C)c(Cc2ccccc2F)cc1F [Compound 214, N-ethyl-N′-(2-fluoro-4-(2-fluorobenzyl)-5-methylphenyl)-N-methylformimidamide]
Pyricularia oryzae
  inhibition of growth at 300 ppm: > 75%
Rhizoctonia solani
  inhibition of growth at 300 ppm: > 80%
Botrytis cinerea
  inhibition of growth at 300 ppm: > 80%
Alternaria solani
  inhibition of growth at 300 ppm: > 75%
Colletotrichum capsici
  inhibition of growth at 300 ppm: > 80%
Septoria lycopersici
  inhibition of growth at 300 ppm: > 70%
Fusarium culmorum
  inhibition of growth at 300 ppm: 75%

## CCN(C)C=Nc1cc(C)c(Cc2c(F)cccc2C(F)(F)F)cc1Cl [Compound 220, N′-(2-chloro-4-(2-fluoro-6-(trifluoromethyl)benzyl)-5-methylphenyl)-N-ethyl-N-methylformimidamide]
Pyricularia oryzae
  inhibition of growth at 300 ppm: > 75%
Rhizoctonia solani
  inhibition of growth at 300 ppm: > 80%
Botrytis cinerea
  inhibition of growth at 300 ppm: > 80%
Alternaria solani
  inhibition of growth at 300 ppm: > 75%
Colletotrichum capsici
  inhibition of growth at 300 ppm: > 80%
Septoria lycopersici
  inhibition of growth at 300 ppm: > 70%
Fusarium culmorum
  inhibition of growth at 300 ppm: 75%
